What was measured:
Format in all cases: cell-based
PPARγ = experiment: Western blot, protein expression of PPARγ during adipogenesis of 3T3-L1 cells; settings: adipogenesis terminated at day 7, increasing concentrations
Experimental: (§1) 3T3-L1 preadipocytes were cultured in DMEM (D5796, high glucose) supplemented with 10% FBS, penicillin, and streptomycin at 37 °C in 5% CO2 atmosphere and 80% humidity. For long-term experiments, cells were seeded onto 6-well plates and grown to confluence. Adipogenesis was induced 48 h post confluence (day 0) by addition of culture medium containing […], […] dexamethasone, and 500 µM 3-isobutyl-1-methylxan-thine (IBMX). Experiments were performed in the absence and presence of increasing concentrations of ethanolic citrus extracts (total peel, flavedo and albedo layers) or commercially available citropten, bergamottin and 5-geranyloxy-7-methox-ycoumarin. Ethanol (0.1%) served as vehicle. At days 3 and 5, medium was replaced by fresh medium supplemented with 10 pg/ml and 0.2 ug/ml insulin, respectively, with and without compounds. At day 7, adipogenesis was terminated by harvest of cells. In a short-term approach, differentiation was performed for 24 h. […]
(§2) Lysates were denaturated by boiling with 5-fold Laemmli buffer for 10 min at 95 °C. […] After incubation of membranes with respective horseradish peroxidase-conjugated IgGs immunoreactive bands were visualized using Western Bright™ ECL or Western Bright™ Quantum substrates (Biozym, Austria) and chemiluminescence was quantified with the Fusion SL Imaging System (VWR International GmbH).

C/EBPα = experiment: Western blot, protein expression of C/EBPα during adipogenesis of 3T3-L1 cells; settings: adipogenesis terminated at day 7, increasing concentrations
Experimental: as §1, §2

C/EBPβ [1] = experiment: Western blot, protein expression of C/EBPβ (isoforms LAP*, LAP, LIP) in 3T3-L1 cells; settings: for protein expression of C/EBPβ (isoforms LAP*, LAP and LIP): 10 µg/ml each
Experimental: 3T3-L1 preadipocytes were cultured in DMEM (D5796, high glucose) supplemented with 10% FBS, penicillin, and streptomycin at 37 °C in 5% CO2 atmosphere and 80% humidity. For long-term experiments, cells were seeded onto 6-well plates and grown to confluence. Adipogenesis was induced 48 h post confluence (day 0) by addition of culture medium containing […], 0.4 pg/ml dexamethasone, and 500 µM 3-isobutyl-1-methylxan-thine (IBMX). Experiments were performed in the absence and presence of increasing concentrations of ethanolic citrus extracts (total peel, flavedo and albedo layers) or commercially available citropten, bergamottin and 5-geranyloxy-7-methox-ycoumarin. Ethanol (0.1%) served as vehicle. At days 3 and 5, medium was replaced by fresh medium supplemented with 10 pg/ml and 0.2 ug/ml insulin, respectively, with and without compounds. At day 7, adipogenesis was terminated by harvest of cells. In a short-term approach, differentiation was performed for 24 h. Cells were harvested by treatment with RIPA buffer (#R0278, Sigma) containing EDTA (2 mM) and cOmplete Protease Inhibitor Cocktail (total volume of 150 µl per well) and scraped off mechanically. Cell suspensions were transferred to Eppendorf vials, homogenized by repeated sonication, and kept on ice for 10 min. Aliquots were stored at 4 °C for measurement of triglycerides (TGs) and total cellular protein content. For Western blot experiments homogenates were stored at -80 °C.
Lysates were denaturated by boiling with 5-fold Laemmli buffer for 10 min at 95 °C. Samples containing 15 µg of protein were separated by SDS-PAGE on 8-12% gels for 45 min at 180 V. Thereafter, proteins were transferred onto nitrocellulose membranes for 90 min (240 mA). After blocking with Tris-buffered saline containing 0.1% (v/v) Tween-20 and 5% non-fat dry milk for 1 h (ambient temperature) membranes were incubated overnight at 4 °C with primary antibodies. After incubation of membranes with respective horseradish peroxidase-conjugated IgGs immunoreactive bands were visualized using Western Bright™ ECL or Western Bright™ Quantum substrates (Biozym, Austria) and chemiluminescence was quantified with the Fusion SL Imaging System (VWR International GmbH).

C/EBPδ [2] = experiment: Western blot, protein expression of C/EBPδ in 3T3-L1 cells; settings: 10 pg/ml each
Experimental: as §1, §2

C/EBPβ [3] = experiment: Dual luciferase reporter assay, transcriptional activity of C/EBPβ in HEK293 cells; settings: 24 h; for transcriptional activity of C/EBPβ: 10 µg/ml
Experimental: (§3) At 80-90% confluence, HEK293 cells were co-transfected with C/EBPβ or C/EBPδ DNA (1 µg each) and Cignal Reporter (0,5 µg) in serum- and antibiotic-free medium using TurboFect™ Transfection Reagent (ThermoFisher Scientific). Cells were incubated for 24 h in the absence and presence of citropten, bergamottin or 5-geranyloxy-7-methoxycoumarin. Thereafter, cells were harvested and lysed according to the manufacturer's instructions. Activities of firefly luciferase and Renilla luciferase were sequentially measured as biolumi-nescence using the GloMax Discover System GM3000 (Promega) as described. Luminescence of each sample was normalized to Renilla luciferase activity.

C/EBPδ [4] = experiment: Dual luciferase reporter assay, transcriptional activity of C/EBPδ in HEK293 cells; settings: 10 µg/ml, 24 h
Experimental: as §3, with “Transcriptional activities of C/EBPβ and C/EBP6 were measured using the C/EBP Cignal™ Reporter Assay (CCS-001L; dual luc) from Qiagen (Germany) and the Dual-Luciferase® Reporter Assay System (E1910; Promega Corporation, Germany) as recently described (Mussbacher et al., 2019, Sci Rep, 9(1), 15403. https://doi.org/10.1038/s41598-019-51579-x). pcDNA-mC/EBPβ (Addgene plasmid # 49198) and pcDNA-mC/EBP6 (Addgene plasmid #12559) were gifts from Jed Friedman and Peter Johnson, respectively. At” for “At”

AMPK = experiment: Western blot, expression and phosphorylation of AMPK, short-term experiments in 3T3-L1 cells; settings: 10 µg/ml, short-term (24 h), compared to controls
Experimental: as §1, §2

[5] = test system: acetyl-CoA carboxylase (ACC); experiment: Western blot, expression and phosphorylation of ACC, short-term experiments in 3T3-L1 cells
Experimental: as §1, §2

mature 3T3-L1 cells [6] = experiment: Forskolin-stimulated lipolysis, release of free fatty acids into the medium; settings: for forskolin-induced lipolysis: 3 h
Experimental: (§4) 3T3-L1 preadipocytes were seeded onto 6-well plates and cultured in DMEM (D5796; high glucose) supplemented with 10% fetal bovine serum, penicillin, and streptomycin at 37 °C in 5% CO2 atmosphere and 80% humidity. Differentiation of cells were performed for 10 days as described in 2.4. Mature adipocytes were washed twice in low glucose containing DMEM (D4947). Lipolysis was induced by addition of the adenylyl cyclase activator forskolin (10 µM) and cells were incubated in medium containing 2% fatty acid-free BSA for up to 6 h in the absence and presence of coumarins. In basal lipolysis experiments, forskolin was excluded. Aliquots of the medium were collected and release of free fatty acids (FFAs) was measured using the NEFA Assay Kit from FUJIFILM Wako Chemicals Europe GmbH (Neuss, Germany) (ASC-ACOD method) according to the manufacturer's instructions.

mature 3T3-L1 cells [7] = experiment: Basal lipolysis, release of free fatty acids into the medium (forskolin excluded); parameters: dose or concentration left out as unconfirmed; settings: without forskolin, 3 h
Experimental: as §4

SMILES	protein expression of PPARγ (PPARγ)	protein expression of C/EBPα (C/EBPα)	protein expression of C/EBPβ (isoforms LAP*, LAP and LIP) (C/EBPβ [1])	protein expression of C/EBP6 (C/EBPδ [2])	transcriptional activity of C/EBPβ (C/EBPβ [3])	transcriptional activity of C/EBP6 (C/EBPδ-dependent transcriptional activity) (C/EBPδ [4])	phosphorylation of AMPK at Thr172 (AMPK)	forskolin-induced lipolysis (mature 3T3-L1 cells [6]; 56 µM (10 µg/ml))	also measured
COc1cc(OC/C=C(\C)CCC=C(C)C)c2ccc(=O)oc2c1 [5-geranyloxy-7-methoxycoumarin, 5-[(2E)-3,7-dimethylocta-2,6-dienoxy]-7-methoxychromen-2-one]	concentration-dependently suppressed	concentration-dependently suppressed	not affected	not affected	not affected	tendency to decrease	more than doubled		transcriptional activity of C/EBP6 (C/EBPδ-dependent transcriptional activity) (C/EBPδ [4]; listed as 5-geranyloxy-7-methoxy-coumarin): not affected; fold induction at 10 µg/mL ([5]; Mus musculus, 3T3-L1, short-term (24 h), compared to controls, read-out: phosphorylation of acetyl-CoA carboxylase (ACC) at Ser79): ~3
O=c1ccc2cc(O)c(O)cc2o1 [esculetin, 6,7-dihydroxy-2H-chromen-2-one]								did not significantly enhance	
COc1cc(OC)c2ccc(=O)oc2c1 [citropten, 5,7-dimethoxy-2H-chromen-2-one]									expression of LIP (C/EBPβ [1]; 25 µg/ml, p<0.05 vs vehicle-treated cells): significantly upregulated; protein expression of C/EBPβ (C/EBPβ [1]; citropten 25 µg/ml): increased; activity of C/EBPβ (C/EBPβ [3]; citropten 25 µg/ml): increased; forskolin-induced lipolysis (mature 3T3-L1 cells [6]; 10 pg/ml (≈ 48 µM)): significant effect; activity at 120 µM (mature 3T3-L1 cells [6]; Mus musculus, 3T3-L1, 25 µg/ml (≈ 120 µM), 3-4 h after induction of lipolysis, read-out: effect on forskolin-stimulated lipolysis (release of FFAs), maximal): 185 to 190%; forskolin-stimulated lipolysis (mature 3T3-L1 cells [6]; forskolin 10 µM, time- and concentration-dependent manner): enhanced; release of FFAs (mature 3T3-L1 cells [6]; forskolin-stimulated, 25 µg/ml (≈ 120 µM), within 0.5 and 6 h): significantly increased; basal release of FFAs (mature 3T3-L1 cells [7]): increased
CC(C)=CCC/C(C)=C/COc1c2ccoc2cc2oc(=O)ccc12 [bergamottin, 4-[(2E)-3,7-dimethylocta-2,6-dienoxy]furo[3,2-g]chromen-7-one]	concentration-dependently suppressed	concentration-dependently suppressed	not affected	not affected	not affected	not affected	significantly increased		phosphorylation of ACC (Ser79) ([5]; 10 µg/ml, short-term experiments, p<0.05 vs vehicle-treated cells): significantly increased; forskolin-induced lipolysis (mature 3T3-L1 cells [6]; 30 µM (10 µg/ml)): did not significantly enhance
COc1cc2oc(=O)ccc2cc1O [isoscopoletin, 6-hydroxy-7-methoxy-2H-chromen-2-one]								did not significantly enhance	
COc1ccc2ccc(=O)oc2c1 [herniarin, 7-methoxy-2H-chromen-2-one]									forskolin-induced lipolysis (mature 3T3-L1 cells [6]; 141 µM (25 µg/ml)): did not significantly enhance

— patent publication EP4461294A1, “LIPOLYTIC AND ANTIADIPOGENIC COUMARIN DERIVATIVES” (Karl-Franzens-Universität Graz, priority 2023, dated 2024)
